Experimental findings from US20050009849A1, “Pyridopyrimidine kinase inhibitors” (priority 2003, published 2005) are described below.

In one data set the test system is normal progenitors. Put plainly: Inhibition of normal progenitors. The data set is classed as cell-based, human. From the text:
(§1) In many experiments the CD34+ blasts were further depleted of GM, megakaryocyte or lymphocyte progenitors (CD 13, 14, 15, 46, 61, 19-) or of erythroid and megakaryocyte progenitors (CD36-, Glycophorin-, CD41/61-) in order to study the drug's effects on purer erythroid or GM progenitors.

For another data set, the system named is CML progenitors. Put plainly: cells. Type of data set: cell-based, human. The settings on record: for inhibition at 0.01 µM: read-out: average inhibition of CML GM progenitors, 10 nM.
Source text: as §1

The nature of another data set: Solubility. The data set is classed as physicochemical.
The subject of data set [1] is human glioblastoma, sarcoma, neuroblastoma and Ewing's sarcoma cell lines. Put plainly: cells. The settings on record: read-out: average IC50s.
Data set [2] relates to R10 Negative and R10 Positive cells (M07e/p210bcr-abl). The experiment in a line: cells. The settings on record: M-07e.
A further data set deals with CML cell lines. The experiment in a line: cells. The settings on record: read-out: IC50 on CML cell lines.
The test system of the next data set is R10-Negative cells. The experiment in a line: CFSE cell division and viability. The data set is classed as cell-based. The settings on record: 25 nM, after one division by Day 2. On the procedure:
Using the vital stain, CFSE, it is possible to determine the concentrations of different inhibitors required to arrest cell division and also to quantitate the number of quiescent cells. […] However with exposure to ST1571 at the same concentration many cells continue dividing and 80% are still viable after 6 days; even at 100 nM ST1571, some cells are able to continue dividing and the viability is still 24% at 6 days.

Each structure is given as a SMILES string. Where two headings read alike, the source gives them in different places.

In the case of `CSc1cccc(Nc2ncc3cc(-c4c(Cl)cccc4Cl)c(=O)n(C)c3n2)c1` [PD173955], the “effect on normal erythroid progenitors” value in the data set with normal progenitors (10 nM) is reported as “unaffected”. Also, in the data set on normal progenitors (10 nM, any of the cytokines singly or in combination), the “inhibition of normal progenitors” value is reported as “no inhibition”. Moreover, the IC50 with normal progenitors (Homo sapiens) is 350 nM; with CML progenitors (Homo sapiens, read-out: IC50 for CML progenitors, varies in different patients), 1.5 to 7.5 nM; with CML progenitors (read-out: IC50 for CML progenitors, varies in different patients) it was approximately 2 nM; in data set [1], 400 to 1000 nM; in data set [2], approximately 2 nM; in the data set on CML cell lines, 2 to 35 nM. Also, the “CML erythroid progenitors' exaggerated response to EPO alone or KL alone” value in the data set on CML progenitors (10 nM) is given as “almost completely blocked”. Besides, the inhibition (commonly the relative decrease from the control value, in per cent) at 0.01 µM in the data set with CML progenitors (Homo sapiens, G- + GM + KL) came to 34%; with CML progenitors (Homo sapiens, G- + GM-CSF at 0.03 ng/ml), 68%; with CML progenitors (Homo sapiens, G- + GM-CSF at 10 ng/ml), 61%; in the data set with CML progenitors (Homo sapiens, KL alone at 50-100 ng/ml) it was 83%. In addition, the solubility entry in “Solubility” is given as “quite insoluble”. In addition, the “cell division (CFSE)” value in the data set with R10-Negative cells is “subsequent divisions are blocked”.
